Measurements reported in patent publication US7759510B2, “Platinum complexes and methods of use” (University of South Florida, priority 2003, dated 2010).
Like-named read-outs stand apart in the source and are kept apart here.

What was measured:
Stat3 = target: T1, Stat3 (Mus musculus, UniProt P42227); experiment: EMSA of nuclear extracts, Stat3 DNA-binding activity to hSIE probe; type: biochemical; settings: in vitro
T1 construct: Nuclear extracts were prepared from NIH3T3/hEGFR cell that overexpress human epidermal growth factor (EGF) receptor and stimulated with EGF; endogenous in cells; host or cells: NIH3T3/hEGFR fibroblasts, EGF-stimulated (6 ng/ml, 15 min), nuclear extract
T1 sequence (P42227 whole entry): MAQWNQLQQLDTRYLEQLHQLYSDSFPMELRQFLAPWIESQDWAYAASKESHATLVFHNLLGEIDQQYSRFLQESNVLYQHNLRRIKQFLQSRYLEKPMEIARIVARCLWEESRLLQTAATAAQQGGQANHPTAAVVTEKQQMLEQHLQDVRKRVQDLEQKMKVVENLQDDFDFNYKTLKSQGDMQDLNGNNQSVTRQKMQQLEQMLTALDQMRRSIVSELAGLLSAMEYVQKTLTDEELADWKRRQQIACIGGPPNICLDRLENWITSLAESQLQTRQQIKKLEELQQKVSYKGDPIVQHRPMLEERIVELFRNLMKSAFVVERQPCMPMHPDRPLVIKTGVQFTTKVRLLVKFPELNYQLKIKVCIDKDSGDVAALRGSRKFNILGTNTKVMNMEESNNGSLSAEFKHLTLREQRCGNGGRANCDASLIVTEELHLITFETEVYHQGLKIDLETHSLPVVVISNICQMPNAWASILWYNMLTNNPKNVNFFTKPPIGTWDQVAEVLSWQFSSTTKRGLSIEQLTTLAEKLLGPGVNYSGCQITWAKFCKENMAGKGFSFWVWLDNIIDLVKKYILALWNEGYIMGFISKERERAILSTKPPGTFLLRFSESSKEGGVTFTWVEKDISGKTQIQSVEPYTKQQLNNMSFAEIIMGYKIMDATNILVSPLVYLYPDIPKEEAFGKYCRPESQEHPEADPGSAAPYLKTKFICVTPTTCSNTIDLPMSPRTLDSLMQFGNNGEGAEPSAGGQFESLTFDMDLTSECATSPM
Procedure: Nuclear Extract Preparation and Analysis by EMSA of HK-Designated Platinum Complexes.
Nuclear extracts were prepared from NIH3T3/hEGFR cell that overexpress human epidermal growth factor (EGF) receptor and stimulated with EGF (6 ng/ml) for 15 min. Nuclear extracts were pre-incubated with compounds for 30 min at room temperature prior to incubation with radiolabeled probe. The ^32P-labeled oligonucleotide probe used is hSIE (high affinity sis-inducible element, m67 variant, 5′-[…]-3′) (SEQ ID NO:1) that binds both Stat1 and Stat3.
Other platinum (IV) complexes were evaluated for inhibitory activity against STAT DNA-binding in vitro.

A549 cells = experiment: MTT assay, percent survival of A549 cells; type: cell-based; settings: A549; for IC50: Table 2, read-out: Calculated IC 50 (uM concentration)
Procedure: 1. Prepare a suspension of A549 cells at 2×10^5 cells per mL in supplemented DMEM/F12 growth medium.
2. Plate 2×10^4 cells per well in a 96 well cell culture plate by adding 100 μL of stock suspension to each well.
3. For each platinum compound (already in solution), prepare a readily usable stock solution in DMEM/F12 medium.
4. For each compound generate triplicate trials of 0, 10, 20, 30, 40, 50, 60, and 70 μM concentration. This is achieved in situ by adding appropriate volumes of stock solution to each well along with the volume of untreated medium necessary to generate the desired concentration in a final volume of 200 μL.
5. Gently agitate plates to mix contents. Incubate at 37° C., 7% CO2 for 45 hours.
6. Add 20 μL of 5 mg/mL MTT solution (in PBS) to each well.
7. Gently agitate plates to mix contents and incubate an additional 3 hours to allow product development.
8. Remove plates from incubator and agitate to cause settling of formazan product.
9. Aspirate out liquid contents of each well using needle and syringe and discard.
10. Add 200 μL DMSO to each well to dissolve formazan product.
11. Agitate plates until all of the formazan product is in solution and no purple crystals remain on the bottom surface of the wells.
12. Read the absorbance of each well at […] using Varian software for Cary 50 UV-vis Spectrophotometer with fiber optic probe accessory.
(§1) MTT assays are used for the quantitative determination of cellular proliferation and activation and for the quantitation of in vitro tumor cell sensitivity to anti-cancer compounds. The assay is based on the cleavage of the yellow tetrazolium salt MTT into purple colored formazan by metabolically active cells. Solubilized formazan product can be photometrically quantitated using an ELISA plate reader. A decrease in the number of living cells results in a decrease in total metabolic activity which leads to a decrease in color formation. Platinum complexes of the present invention were tested in MTT assays using A549 cells to determine anti-cancer cell activity. […] FIGS. 1, 2, and 4 show percent survival versus platinum complex concentration in graphical form.
as §1, with “FIGS. 8, 9,” for “FIGS. 1, 2,”, “and 11” for “and 4”

[1] = extrapolated from incomplete data (10-40 uM; CPA-31 10-30 μM), outside the measured range

Compound | Disruption of Stat3 activity / ability to bind its consensus binding sequence (Stat3) | Average Absorbance (A549 cells; Table 1, 10 μM) | Percent Survival (A549 cells; Table 1, 10 μM) [%] | Average Absorbance (A549 cells; Table 1, 20 μM) | Percent Survival (A549 cells; Table 1, 20 μM) [%] | Average Absorbance (A549 cells; Table 1, 30 μM) | Percent Survival (A549 cells; Table 1, 30 μM) [%] | Average Absorbance (A549 cells; Table 1, 40 μM) | Percent Survival (A549 cells; Table 1, 40 μM) [%] | Average Absorbance (A549 cells; Table 3, 10 μM) | Percent Survival (A549 cells; Table 3, 10 μM) [%] | Average Absorbance (A549 cells; Table 3, 20 μM) | Percent Survival (A549 cells; Table 3, 20 μM) [%] | Average Absorbance (A549 cells; Table 3, 30 μM) | Percent Survival (A549 cells; Table 3, 30 μM) [%] | Average Absorbance (A549 cells; Table 3, 40 μM) | Percent Survival (A549 cells; Table 3, 40 μM) [%] | Average Absorbance (A549 cells; Table 3, 50 μM) | Percent Survival (A549 cells; Table 3, 50 μM) [%] | Average Absorbance (A549 cells; Table 3, 60 μM) | also measured
[NH2][Pt]([NH2])([Cl])([Cl])[N+](=O)[O-].c1ccc(-c2oc(-c3ccccc3)c3ccccc23)cc1 [CPA-41] | strongly disrupt Stat3 activity | 2.3706 | 100.4024 | 2.3827 | 100.9148 | 2.1124 | 89.4668 | 0.8648 | 36.6270 | 2.4500 | 100.2906 | 2.3805 | 97.4457 | 1.4686 | 60.1171 | 0.4210 | 17.2336 | 0.3647 | 14.9290 | 0.5549 | IC50 (A549 cells; [1]): 40.7 µM; Percent Survival (A549 cells; Table 3, 60 μM): 22.7148%; Average Absorbance (A549 cells; Table 3, 70 μM): 0.5445; Percent Survival (A549 cells; Table 3, 70 μM): 22.2891%
N[N](c1cc([N+](=O)[O-])cc([N+](=O)[O-])c1)[Pt]([NH2])([NH2])([Cl])([Cl])[N+](=O)[O-] [CPA-43] | strongly disrupt Stat3 activity | 2.4150 | 102.2828 | 1.8554 | 78.5820 | 2.1451 | 90.8517 | 1.3030 | 55.1861 | 2.5840 | 105.7759 | 2.2922 | 93.8311 | 1.4833 | 60.7188 | 0.6479 | 26.5218 | 0.4641 | 18.9979 | 0.6504 | IC50 (A549 cells; [1]): 49.6 µM; Percent Survival (A549 cells; Table 3, 60 μM): 26.6241%; Average Absorbance (A549 cells; Table 3, 70 μM): 0.5059; Percent Survival (A549 cells; Table 3, 70 μM): 20.7090%
O=C1C(Br)=CC2=C(c3ccccc3C(=O)[O-])C3C=C(Br)C([O-])=C(Br)C3OC2=C1Br.[NH2][Pt]([NH2])([Cl])([Cl])[N+](=O)[O-] (stereo not shown) [CPA-30] | strongly disrupt Stat3 activity | – | – | – | – | – | – | – | – | – | – | – | – | – | – | – | – | – | – | – | –
Nc1cccc2c(=O)[nH][n]([Pt]([NH2])([NH2])([Cl])([Cl])[N+](=O)[O-])c(=O)c12 [CPA-51] | strongly disrupt Stat3 activity | 2.4925 | 105.5652 | 2.5760 | 109.1017 | 2.3214 | 98.3186 | 2.0616 | 87.3152 | 2.4744 | 101.2895 | 2.4868 | 101.7970 | 2.0998 | 85.9552 | 1.4758 | 60.4118 | 0.9352 | 38.2824 | 0.7084 | Average Absorbance (A549 cells; Table 1, 50 μM): 1.3869; Percent Survival (A549 cells; Table 1, 50 μM): 58.7396%; Average Absorbance (A549 cells; Table 1, 60 μM): 0.8807; Percent Survival (A549 cells; Table 1, 60 μM): 37.3004%; Average Absorbance (A549 cells; Table 1, 70 μM): 1.0819; Percent Survival (A549 cells; Table 1, 70 μM): 45.8219%; IC50 (A549 cells; linear trend from percent survival vs. concentration data of Table 1): 61.2 µM; Percent Survival (A549 cells; Table 3, 60 μM): 28.9983%; Average Absorbance (A549 cells; Table 3, 70 μM): 0.7058; Percent Survival (A549 cells; Table 3, 70 μM): 28.8919%
